The results in this text go back to patent publication US6800637B2, “Antidepressant indolealkyl derivatives of heterocycle-fused benzodioxan methylamines” (Wyeth, priority 2002, dated 2004).

Structures are written as SMILES. Counter-ions that a name gives are not always drawn.

As usually defined, the melting point is the temperature of the solid-liquid transition. `CCN(CCCCc1coc2ccccc12)C[C@H]1COc2ccc3nc(C)ccc3c2O1` (as salt: fumarate) [Example 52, N-[4-(1-Benzofuran-3-yl)butyl]-N-ethyl-N-{[(2S)-8-methyl-2,3-dihydro[1,4]dioxino[2,3-f]quinolin-2-yl]methyl}amine] came in with a melting point of 87 to 92 °C.
Under `Fc1ccc2[nH]cc(CCCNC[C@H]3COc4ccc5ncccc5c4O3)c2c1` (as salt: hydrochloride) [Example 14, N-(2,3-Dihydro-[1,4]dioxino[2,3-f]quinolin-2-ylmthyl)-N-[3-(5-fluoro-1H-indol-3-yl)propyl]amine] stands 196 to 199 °C; under `Cc1nc2ccc3c(c2o1)O[C@@H](CNCCCc1c[nH]c2ccc(F)cc12)CO3` (as salt: hydrochloride) [Example 23, N-[3-(5-Fluoro-1H-indol-3-yl)propyl]-N-(2-methyl-7,8-dihydro-[1,4]dioxino[2,3-g][1,3]benzoxazol-8-ylmethyl)amine], 91 to 93 °C.
Under `Cc1nc2ccc3c(c2o1)OC(CN(C)CCCc1c[nH]c2ccc(F)cc12)CO3` (stereo not shown) (as salt: hydrochloride) [Example 24, N-[3-(5-Fluoro-1H-indol-3-yl)propyl]-N-methyl-N-(2-methyl-7,8-dihydro[1,4]dioxino[2,3-g][1,3]benzoxazol-8-ylmethyl)amine] stands 136 to 139 °C; under `CCN(CCCc1c[nH]c2ccc(F)cc12)CC1COc2ccc3nc(C)ccc3c2O1` (stereo not shown) (as salt: hydrochloride) [Example 25, N-Ethyl-N-[3-(5-Fluoro-1H-indol-3-yl)propyl]-N-(8-methyl-2,3-dihydro-[1,4]dioxino[2,3-f]quinolin-2-ylmethyl)amine], 158 to 175 °C.
Under `Cc1ccc2c3c(ccc2n1)OCC(CN(C)CCCc1cn(C)c2c(F)cc(F)cc12)O3` (stereo not shown) (as salt: hydrochloride) [Example 27, N-[3-(5,7-Difluoro-1-methyl-1H-indol-3-yl)propyl]-N-methyl-N-(8-methyl-2,3-dihydro-[1,4]dioxino[2,3-f]quinolin-2-ylmethyl)amine] stands 190 to 204 °C; under `Cc1ccc2c3c(ccc2n1)OCC(CNCCCc1c[nH]c2ccc(C#N)cc12)O3` (stereo not shown) (as salt: hydrochloride) [Example 29, 3-{3-[(8-Methyl-2,3-dihydro-[1,4]dioxino[2,3-f]quinolin-2-ylmethyl)-amino]-propyl}-1H-indole-5-carbonitrile], 170 to 174 °C; under `Cc1nc2ccc3c(c2o1)O[C@@H](CNCCCc1c[nH]c2ccc(C#N)cc12)CO3` (as salt: hydrochloride) [Example 30, 3-{3-[(2-Methyl-7,8-dihydro-[1,4]dioxino[2,3-g][1,3]benzoxazol-8-ylmethyl)amino]-propyl}-1H-indole-5-carbanitrile], 148 to 151 °C.
In the case of `Cc1nc2ccc3c(c2o1)O[C@@H](CN(C)CCCc1c[nH]c2ccc(C#N)cc12)CO3` (as salt: hydrochloride) [Example 31, 3-{3-[M thyl-(2-methyl-7,8-dihydro-[1,4]dioxino[2,3[-g][1,3]benzoxazol-8-ylmethyl)-amino]-propyl)}-1H-indole-5-carbonitrile], the melting point is 140 °C (dec.).
Under `Cc1ccc2c3c(ccc2n1)OCC(CNCCCn1ccc2ccc(F)cc21)O3` (stereo not shown) (as salt: hydrochloride) [Example 33, [3-(6-Fluoro-indol-1-yl)-propyl]-(8-methyl-2,3-dihydro-[1,4]dioxino[2,3-f]quinolin-2-ylmethyl)amine] stands 154 to 156 °C.
Under `Cc1ccc2c3c(ccc2n1)OCC(CN(C)CCCn1ccc2ccc(F)cc21)O3` (stereo not shown) (as salt: hydrochloride) [Example 34, [3-(6-Fluoro-indol-1-yl)-propyl]-methyl-(8-methyl-2,3-dihydro-[1,4]dioxino[2,3-f]quinolin-2-ylmethyl)-amine] stands 75.9 to 83.7 °C.
Under `Cc1ccc2c3c(ccc2n1)OCC(CNCCCCc1cn(C)c2ccc(F)cc12)O3` (stereo not shown) (as salt: hydrochloride) [Example 35, [4-(5-Fluoro-1-methyl-1H-indol-3-yl)-butyl]-(8-methyl-2,3-dihydro-[1,4]dioxino[2,3-f]quinolin-2-ylmethyl)-amine] stands 229 to 235 °C; under `CCN(CCCc1c[nH]c2ccc(F)cc12)C[C@H]1COc2ccc3nc(C)oc3c2O1` (as salt: hydrochloride) [Example 36, Ethyl-[3-(5-fluoro-1H-indol-3-yl)-propyl]-(2-methyl-7,8-dihydro-[1,4]dioxino[2,3-g][1,3]benzoxazol-8-ylmethyl)-amine], 115 °C (dec.); under `Cc1ccc2c3c(ccc2n1)OCC(CNCCCCn1ccc2ccc(F)cc21)O3` (stereo not shown) (as salt: hydrochloride) [Example 38, [4-(6-Fluoro-indol-1-yl)-butyl]-(8-methyl-2,3-dihydro-[1,4]dioxino[2,3-f]quinolin-2-ylmethyl)-amine], 122 to 127 °C.
As for `Cc1ccc2c3c(ccc2n1)OCC(CN(C)CCCc1cn(C)c2ccc(F)cc12)O3` (stereo not shown) (as salt: hydrochloride) [Example 42, [3-(5-Fluoro-1-methyl-1H-indol-3-yl)-propyl]-methyl-(8-methyl-2,3-dihydro-[1,4]dioxino[2,3-f]quinolin-2-ylmethyl)-amine], the melting point fell in the range of 274 to 275 °C.
Under `Cc1ccc2c3c(ccc2n1)OCC(CN(C)CCCCc1c[nH]c2ccc(F)cc12)O3` (stereo not shown) (as salt: hydrochloride) [Example 43, [4-(5-Fluoro-1H-indol-3-yl)-butyl]-methyl-(8-methyl-2,3-dihydro-[1,4]dioxino[2,3-f]quinolin-2-ylmethyl}-amine] stands 274 to 275 °C; under `Cc1ccc2c3c(ccc2n1)OCC(CN(C)CCCCc1cn(C)c2ccc(F)cc12)O3` (stereo not shown) (as salt: hydrochloride) [Example 44, [4-(5-Fluoro-1-methyl-1H-indol-3-yl)-butyl]-methyl-(8-methyl-2,3-dihydro-[1,4]dioxino[2,3-f]quinolin-2-ylmethyl)-amine], 275 to 276 °C; under `CCCN(CCCc1c[nH]c2ccc(F)cc12)CC1COc2ccc3nc(C)ccc3c2O1` (stereo not shown) (as salt: hydrochloride) [Example 45, [3-(5-Fluoro-1H-indol-3-yl)-propyl]-(8-methyl-2,3-dihydro-[1,4]dioxino[2,3-f]quinolin-2-ylmethyl)-propyl-amine], 164 to 170 °C.
Regarding `Cc1ccc2c3c(ccc2n1)OCC(CNCCCn1ccc2c(F)cccc21)O3` (stereo not shown) (as salt: hydrochloride) [Example 46, [3-(4-Fluoro-indol-1-yl)-propyl]-(8-methyl-2,3-dihydro-[1,4]dioxino[2,3-f]quinolin-2-ylmethyl)-amine], the melting point was 203 to 206 °C.
